We go through five molecules from patent publication US20240287138A1, “CYCLIC PEPTIDES FOR INHIBITING TNF RECEPTOR 1 ACTIVITY” (Merck Sharp & Dohme LLC, priority 2023, published 2024).

For assay [1], the target named is T1, TNFα-induced NF-κB signal transduction pathway (TNFR1 signaling) in THP-1 cells (Homo sapiens, UniProt P19438).
T1 sequence (P19438 30-455): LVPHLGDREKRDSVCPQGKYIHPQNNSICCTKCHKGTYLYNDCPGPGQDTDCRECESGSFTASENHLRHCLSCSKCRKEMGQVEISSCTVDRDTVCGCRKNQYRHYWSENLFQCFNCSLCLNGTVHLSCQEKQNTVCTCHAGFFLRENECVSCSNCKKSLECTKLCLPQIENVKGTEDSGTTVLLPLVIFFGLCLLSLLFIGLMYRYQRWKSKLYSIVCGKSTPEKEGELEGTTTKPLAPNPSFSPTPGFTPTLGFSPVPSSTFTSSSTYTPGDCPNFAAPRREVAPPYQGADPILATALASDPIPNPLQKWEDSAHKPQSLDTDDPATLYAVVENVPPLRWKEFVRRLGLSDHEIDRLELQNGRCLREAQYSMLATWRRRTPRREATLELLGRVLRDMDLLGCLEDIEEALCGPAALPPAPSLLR
Kind of assay: THP-1 Lucia NF-κB reporter cell assay, inhibition of TNFα-induced NF-κB signaling. The settings on record: THP-1 NF-κB Lucia reporter cells, 10 ng/mL TNFα, 16-18 h, secreted luciferase; read-out: THP-1 IC50. It is filed as cell-based. In a few lines: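 Read-out: secreted Lucia luciferase luminescence (QUANTI-Luc) from supernatant after 16-18 h, 37 °C, 10 ng/mL rhTNFα. Peptide pretreatment 1 h at 37 °C; 20,000 cells/well, selection antibiotics omitted. IC50 via 4-parameter logistic model against min/max controls.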

In assay [2] the target is T2, human TNFR1 extracellular domain (ECD) protein (Homo sapiens, UniProt P19438).
T2 construct: HRV 3C protease cleavage site (C); 6His (C, cleaved yes); made in house; host or cells: Sf21 insect cells (baculovirus), secreted
T2 sequence (P19438 30-211): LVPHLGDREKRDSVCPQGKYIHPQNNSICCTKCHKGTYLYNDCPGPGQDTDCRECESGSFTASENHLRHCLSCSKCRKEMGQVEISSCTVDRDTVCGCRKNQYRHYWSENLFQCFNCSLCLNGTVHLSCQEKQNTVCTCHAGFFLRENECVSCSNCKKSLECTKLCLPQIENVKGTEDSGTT
The experiment in a line: SPR binding affinity to captured human TNFR1 ECD. In a few lines: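 Read-out: kon, koff and derived affinity from SPR response units. Human TNFR1 and TNFR2 ECD, Avi-tag biotinylated with BirA, captured on a streptavidin surface; peptides injected under laminar flow in HEPES-saline with EDTA, P20 and 2% DMSO.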

Read-outs that look alike come from different tables or passages of the source. Numbered stars: 1 amine (or outer) side, 2 acyl side, 3 side chain; on linkers, the order of the positions; unused ones are H or OH. Bridge positions count the residues as written; N and C are the ends. Square brackets hold non-standard residues; d marks the D form. Peptide text beside a SMILES is read from it. * marks the point of attachment. Trp(βS-Me,7-OMe) = COc1cccc2c([C@H](C)[C@H](N)C(=O)O)c[nH]c12; Trp(1-CH2COOH) = N[C@@H](Cc1cn(CC(=O)O)c2ccccc12)C(=O)O; Phe(4-SO2NH2) = N[C@@H](Cc1ccc(S(N)(=O)=O)cc1)C(=O)O; dPro(trans-4-NMe2) = CN(C)[C@@H]1CN[C@@H](C(=O)O)C1; Trp(7-CN) = N#Cc1cccc2c(C[C@H](N)C(=O)O)c[nH]c12; Trp(7-Cl) = N[C@@H](Cc1c[nH]c2c(Cl)cccc12)C(=O)O; Phe(4-CONH2) = NC(=O)c1ccc(C[C@H](N)C(=O)O)cc1; Phe(4-COOH) = N[C@@H](Cc1ccc(C(=O)O)cc1)C(=O)O; 4Pal(3S-Me) = C[C@@H](c1ccncc1)[C@H](N)C(=O)O; X23 = N[C@@H]1CCN([*:1])[C@H](C(=O)[*:2])C1; dPro(4S-NH2) = N[C@@H]1CN[C@@H](C(=O)O)C1; Pip(5R-OH) = O=C(O)[C@@H]1CC[C@@H](O)CN1; X1 = O=C([C@@H]1CC[C@H](N[*:1])C1)[*:2]; Met(O2) = CS(=O)(=O)CC[C@H](N)C(=O)O; 4Pal = N[C@@H](Cc1ccncc1)C(=O)O; NMeE = CN[C@@H](CCC(=O)O)C(=O)O; dHyp = O=C(O)[C@H]1C[C@H](O)CN1; Ahp(2) = CCCCC[C@H](N)C(=O)O; hSer = N[C@@H](CCO)C(=O)O; αMeS = C[C@](N)(CO)C(=O)O; Carboxymethyl = O=C(O)C*; Nle = CCCC[C@H](N)C(=O)O; Sar = CNCC(=O)O

For the molecule `CCCC[C@@H]1NC(=O)[C@@H]2CC[C@@H](C2)NC(=O)[C@H]([C@@H](C)c2c[nH]c3c(OC)cccc23)NC(=O)CN(C)C(=O)[C@H](Cc2ccc(OCC(=O)O)cc2)NC(=O)[C@H](Cc2ccc(S(N)(=O)=O)cc2)NC(=O)[C@](C)(CO)NC(=O)[C@H](Cc2c[nH]c3c(C#N)cccc23)NC(=O)[C@H](Cc2ccc(OCC(=O)O)cc2)NC(=O)[C@H](CC(N)=O)NC(=O)[C@H]2C[C@H](N)CN2C(=O)[C@H](Cc2cn(CC(=O)O)c3ccccc23)NC(=O)[C@@H]2CC[C@@H](O)CN2C(=O)[C@H](Cc2ccncc2)NC1=O` [SEQ ID NO. 18] (cyclo([4Pal][Pip(5R-OH)][Trp(1-CH2COOH)][dPro(4S-NH2)]NY(Carboxymethyl)[Trp(7-CN)][αMeS][Phe(4-SO2NH2)]Y(Carboxymethyl)[Sar][Trp(βS-Me,7-OMe)][X1][Nle])), in assay [1], the IC50 stood at 600 pM. The Kd in assay [2] (biotinylated human TNFR1 ECD on streptavidin chip, from kon and koff, read-out: SPR hTNFR1 KD) worked out at 50 pM.
As for `CCCCC[C@@H]1NC(=O)[C@@H]2CC[C@@H](C2)NC(=O)[C@H]([C@@H](C)c2c[nH]c3c(OC)cccc23)NC(=O)CN(C)C(=O)[C@H](Cc2ccc(C(N)=O)cc2)NC(=O)[C@H](Cc2ccc(C(N)=O)cc2)NC(=O)[C@](C)(CO)NC(=O)[C@H](Cc2c[nH]c3c(C#N)cccc23)NC(=O)[C@H](Cc2ccc(C(=O)O)cc2)NC(=O)[C@H](CC(N)=O)NC(=O)[C@H]2C[C@H](O)CN2C(=O)[C@H](Cc2c[nH]c3ccccc23)NC(=O)[C@H](CCO)NC(=O)[C@H]([C@@H](C)c2ccncc2)NC1=O` [SEQ ID NO. 50] (cyclo([Ahp(2)][4Pal(3S-Me)][hSer]W[dHyp]N[Phe(4-COOH)][Trp(7-CN)][αMeS][Phe(4-CONH2)][Phe(4-CONH2)][Sar][Trp(βS-Me,7-OMe)][X1])), in assay [1], the IC50 came to 900 pM. The equilibrium dissociation constant (Kd) in assay [2] came to 40 pM.
On to `CCCCC[C@@H]1NC(=O)[C@@H]2CC[C@@H](C2)NC(=O)[C@H]([C@@H](C)c2c[nH]c3c(OC)cccc23)NC(=O)CN(C)C(=O)[C@H](Cc2ccc(C(N)=O)cc2)NC(=O)[C@H](Cc2ccc(C(N)=O)cc2)NC(=O)[C@](C)(CO)NC(=O)[C@H](Cc2c[nH]c3c(C#N)cccc23)NC(=O)[C@H](Cc2ccc(C(=O)O)cc2)NC(=O)[C@H](CC(N)=O)NC(=O)[C@H]2C[C@H](O)CN2C(=O)[C@H](Cc2c[nH]c3ccccc23)NC(=O)[C@H](CCS(C)(=O)=O)NC(=O)[C@H]([C@@H](C)c2ccncc2)NC1=O` [SEQ ID NO. 49] (cyclo([Ahp(2)][4Pal(3S-Me)][Met(O2)]W[dHyp]N[Phe(4-COOH)][Trp(7-CN)][αMeS][Phe(4-CONH2)][Phe(4-CONH2)][Sar][Trp(βS-Me,7-OMe)][X1])), for which, in assay [1], the IC50 came out at 700 pM. Besides, in assay [2], the Kd is 80 pM.
The corresponding values for `CCCC[C@@H]1NC(=O)[C@@H]2CC[C@@H](C2)NC(=O)[C@H]([C@@H](C)c2c[nH]c3c(OC)cccc23)NC(=O)CN(C)C(=O)[C@H](Cc2ccc(C(N)=O)cc2)NC(=O)[C@H](Cc2ccc(S(N)(=O)=O)cc2)NC(=O)[C@](C)(CO)NC(=O)[C@H](Cc2c[nH]c3c(C#N)cccc23)NC(=O)[C@H](Cc2ccc(C(=O)O)cc2)NC(=O)[C@H](CC(N)=O)NC(=O)[C@H]2C[C@H](N(C)C)CN2C(=O)[C@H](Cc2cn(CC(=O)O)c3ccccc23)NC(=O)[C@@H]2CC[C@@H](O)CN2C(=O)[C@H](Cc2ccncc2)NC1=O` [SEQ ID NO. 2] (cyclo([4Pal][Pip(5R-OH)][Trp(1-CH2COOH)][dPro(trans-4-NMe2)]N[Phe(4-COOH)][Trp(7-CN)][αMeS][Phe(4-SO2NH2)][Phe(4-CONH2)][Sar][Trp(βS-Me,7-OMe)][X1][Nle])) are 500 pM and 70 pM.
`CCCC[C@@H]1NC(=O)CSC[C@@H](C(N)=O)NC(=O)[C@H]([C@@H](C)c2c[nH]c3c(OC)cccc23)NC(=O)CN(C)C(=O)[C@H](Cc2ccc(O)cc2)NC(=O)[C@H](Cc2ccc(C(=O)O)cc2)NC(=O)[C@](C)(CO)NC(=O)[C@H](Cc2c[nH]c3c(Cl)cccc23)NC(=O)[C@H](Cc2ccncc2)NC(=O)[C@H](CC(N)=O)NC(=O)[C@H](CCC(=O)O)N(C)C(=O)[C@H](Cc2c[nH]c3ccccc23)NC(=O)[C@@H]2C[C@H](N)CCN2C(=O)[C@H](Cc2ccncc2)NC1=O` [SEQ ID NO. 271] ({CH2CO}-[Nle][4Pal][X23]W[NMeE]N[4Pal][Trp(7-Cl)][αMeS][Phe(4-COOH)]Y[Sar][Trp(βS-Me,7-OMe)]C-NH2; thioether N-14): the IC50 in assay [1] stood at 2700 pM. Further, the dissociation constant Kd in assay [2] came to 280 pM.
